From PubChem BioAssay AID588821 (The Scripps Research Institute Molecular Screening Center, 2011)
Active and inactive are the calls of the source.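 The calls were made as follows: active = IC50 at or below 10 µM; inactive = IC50 above 10 µM.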

These molecules were tested on HEK293T GAL4DBD-only luciferase reporter, luminescence counterscreen (assay: compounds suppressing UAS/Gal4-driven luciferase signal – cell-based, luminescence, HEK293T, empty GAL4DBD, dose response, counter-screen for DAX1 inhibitor project, late-stage follow-up (AID 588821)).

**Q.** For `O=C(Nc1ccc2c(c1)OCO2)c1ccc2ccccc2c1`, which IC50 is on record?
**A.** The IC50 was 0.202 µM.

**Q.** `COc1ccc(OC)c(C(C)NC(=O)c2cccc(C)c2)c1` (centres undefined) was tested. Which IC50 did it give?
**A.** The IC50 was > 69.5 µM (inactive).

**Q.** With `COc1ccc(OC)c(C(C)NC(=O)c2c(F)cccc2Cl)c1` (centres undefined) as the molecule, how does the IC50 read?
**A.** Its IC50 is > 69.5 µM (inactive).

**Q.** For `COc1ccc(OC)c(C(C)NC(=O)c2ccc(F)cc2)c1` (centres undefined), which IC50 is on record?
**A.** The IC50 was > 69.5 µM (inactive).

**Q.** `CSc1ccccc1C(=O)Nc1ccc2c(c1)OCO2` was tested. Which IC50 did it give?
**A.** Its IC50 is > 69.5 µM (inactive).

**Q.** How did the IC50 turn out when `COc1ccc(OC)c(C(C)NC(=O)c2ccc(C(C)(C)C)cc2)c1` (centres undefined) was run?
**A.** Its IC50 is > 69.5 µM (inactive).

**Q.** With `COc1ccc(OC)c(C(C)NC(=O)c2ccc(Cl)cc2)c1` (centres undefined) as the molecule, how does the IC50 read?
**A.** Its IC50 is > 69.5 µM (inactive).

**Q.** With `COc1ccc(OC)c(C(C)NC(=O)c2ccccc2Cl)c1` (centres undefined) as the molecule, how does the IC50 read?
**A.** The IC50 was > 69.5 µM (inactive).

**Q.** For `Cn1c(=O)n(C)c2cc(C(=O)Nc3ccc4c(c3)OCO4)ccc21`, which IC50 is on record?
**A.** Its IC50 is > 69.5 µM (inactive).

**Q.** With `O=C(Nc1ccc2c(c1)OCO2)c1cccs1` as the molecule, how does the IC50 read?
**A.** Its IC50 is > 69.5 µM (inactive).

**Q.** Which IC50 does the source give for `COc1ccc(OC)c(C(C)NC(=O)c2ccc3c(c2)OCCO3)c1` (centres undefined) here?
**A.** Its IC50 is > 69.5 µM (inactive).

**Q.** Which IC50 does the source give for `COc1ccc(OC)c(C(C)NC(=O)c2cccc(F)c2)c1` (centres undefined) here?
**A.** The IC50 was > 69.5 µM (inactive).

**Q.** With `O=C(Nc1ccc2c(c1)OCO2)c1ccc(C2SCC(=O)N2Cc2ccco2)cc1` (centres undefined) as the molecule, how does the IC50 read?
**A.** The IC50 was > 69.5 µM (inactive).

**Q.** How did the IC50 turn out when `O=C(Nc1ccc2c(c1)OCO2)c1ccc(C2SCC(=O)N2Cc2ccccc2)cc1` (centres undefined) was run?
**A.** Its IC50 is > 69.5 µM (inactive).

**Q.** How did the IC50 turn out when `COc1cccc(C(=O)NC(C)c2cc(OC)ccc2OC)c1` (centres undefined) was run?
**A.** Its IC50 is > 69.5 µM (inactive).

**Q.** With `Cc1occc1C(=O)Nc1ccc2c(c1)OCO2` as the molecule, how does the IC50 read?
**A.** Its IC50 is > 69.5 µM (inactive).

**Q.** Which IC50 does the source give for `COc1ccc(OC)c(C(C)NC(=O)c2ccc(C)cc2)c1` (centres undefined) here?
**A.** Its IC50 is > 69.5 µM (inactive).

**Q.** With `COc1ccc(OC)c(C(C)NC(=O)c2ccccc2F)c1` (centres undefined) as the molecule, how does the IC50 read?
**A.** Its IC50 is > 69.5 µM (inactive).

**Q.** How did the IC50 turn out when `CSc1ccccc1C(=O)Nc1ccc2c(c1)OCCO2` was run?
**A.** Its IC50 is > 69.5 µM (inactive).

**Q.** Which IC50 does the source give for `Cn1c(=O)n(C)c2cc(C(=O)Nc3ccc4c(c3)OCCO4)ccc21` here?
**A.** The IC50 was > 69.5 µM (inactive).

**Q.** Which IC50 does the source give for `COc1ccc(OC)c(C(C)NC(=O)c2cccc3ccccc23)c1` (centres undefined) here?
**A.** The IC50 was > 69.5 µM (inactive).

**Q.** With `COc1ccc(OC)c(C(C)NC(=O)c2ccccc2)c1` (centres undefined) as the molecule, how does the IC50 read?
**A.** Its IC50 is > 69.5 µM (inactive).

**Q.** Which IC50 does the source give for `COc1ccc(OC)c(C(C)NC(=O)c2ccccc2C)c1` (centres undefined) here?
**A.** The IC50 was > 69.5 µM (inactive).

**Q.** How did the IC50 turn out when `O=C(Cc1cccs1)Nc1ccc2c(c1)OCO2` was run?
**A.** The IC50 was > 69.5 µM (inactive).
